Results reported in the CheMixHub viscosity set.

Assay: xn = mol fraction of the nth substance listed

NC(N)=O + O
Conditions	viscosity [mPa·s]
293.15 K, 100 kPa, x1 = 0.00045	1.018
293.15 K, 100 kPa, x1 = 0.0009	1.027
293.15 K, 100 kPa, x1 = 0.0013	1.041
293.15 K, 101 kPa, x1 = 0.0003382	1.002
293.15 K, 101 kPa, x1 = 0.0005695	1.003
293.15 K, 101 kPa, x1 = 0.0009893	1.003
293.15 K, 101 kPa, x1 = 0.001265	1.004
293.15 K, 101 kPa, x1 = 0.00161	1.004
293.15 K, 101 kPa, x1 = 0.002015	1.005
293.15 K, 101 kPa, x1 = 0.002546	1.006
293.15 K, 101 kPa, x1 = 0.002806	1.006
293.15 K, 101 kPa, x1 = 0.0486	0.872
293.15 K, 101 kPa, x1 = 0.0994	0.991
293.15 K, 101 kPa, x1 = 0.1318	1.087
294.75 K, 101 kPa, x1 = 0.0219	0.9356
294.75 K, 101 kPa, x1 = 0.04201	1.072
294.75 K, 101 kPa, x1 = 0.05343	1.101
294.75 K, 101 kPa, x1 = 0.0565	1.157
298.15 K, 100 kPa, x1 = 0.00045	0.911
298.15 K, 100 kPa, x1 = 0.0009	0.927
298.15 K, 100 kPa, x1 = 0.0013	0.94
298.15 K, 101 kPa, x1 = 0.0003802	0.8909
298.15 K, 101 kPa, x1 = 0.0009168	0.8918
298.15 K, 101 kPa, x1 = 0.001355	0.8925
298.15 K, 101 kPa, x1 = 0.00169	0.893
298.15 K, 101 kPa, x1 = 0.001993	0.8935
298.15 K, 101 kPa, x1 = 0.00247	0.8943
298.15 K, 101 kPa, x1 = 0.00308	0.895
298.15 K, 101 kPa, x1 = 0.003109	0.8953
298.15 K, 101 kPa, x1 = 0.00368	0.8962
298.15 K, 101 kPa, x1 = 0.0259	0.939
298.15 K, 101 kPa, x1 = 0.0389	0.969
298.15 K, 101 kPa, x1 = 0.05204	1.035
298.15 K, 101 kPa, x1 = 0.08275	1.088
298.15 K, 101 kPa, x1 = 0.1302	1.252
298.15 K, 101 kPa, x1 = 0.156	1.348
298.15 K, 101 kPa, x1 = 0.2047	1.561
303.15 K, 100 kPa, x1 = 0.00045	0.824
303.15 K, 100 kPa, x1 = 0.0009	0.839
303.15 K, 100 kPa, x1 = 0.0013	0.849
303.15 K, 101 kPa, x1 = 0.000464	0.798
303.15 K, 101 kPa, x1 = 0.001107	0.799
303.15 K, 101 kPa, x1 = 0.001607	0.7999
303.15 K, 101 kPa, x1 = 0.002024	0.8005
303.15 K, 101 kPa, x1 = 0.002271	0.8009
303.15 K, 101 kPa, x1 = 0.002742	0.8016
303.15 K, 101 kPa, x1 = 0.003158	0.8024
303.15 K, 101 kPa, x1 = 0.003416	0.8028
308.15 K, 100 kPa, x1 = 0.00045	0.744
308.15 K, 100 kPa, x1 = 0.0009	0.755
308.15 K, 100 kPa, x1 = 0.0013	0.77
308.15 K, 101 kPa, x1 = 0.0003775	0.7197
308.15 K, 101 kPa, x1 = 0.0006463	0.7201
308.15 K, 101 kPa, x1 = 0.001149	0.721
308.15 K, 101 kPa, x1 = 0.001425	0.7214
308.15 K, 101 kPa, x1 = 0.001907	0.7223
308.15 K, 101 kPa, x1 = 0.002218	0.7227
308.15 K, 101 kPa, x1 = 0.002872	0.7238
308.15 K, 101 kPa, x1 = 0.003309	0.7246
308.15 K, 101 kPa, x1 = 0.018	0.65
308.15 K, 101.33 kPa, x1 = 0.0177	0.7612
308.15 K, 101.33 kPa, x1 = 0.03479	0.7944
308.15 K, 101.33 kPa, x1 = 0.05127	0.8302
308.15 K, 101.33 kPa, x1 = 0.06723	0.8754
308.15 K, 101.33 kPa, x1 = 0.08263	0.916
308.15 K, 101.33 kPa, x1 = 0.09755	0.9544
308.15 K, 101.33 kPa, x1 = 0.112	1.02
308.15 K, 101.33 kPa, x1 = 0.126	1.049
308.15 K, 101.33 kPa, x1 = 0.1395	1.077
313.15 K, 100 kPa, x1 = 0.00045	0.678
313.15 K, 100 kPa, x1 = 0.0009	0.692
313.15 K, 100 kPa, x1 = 0.0013	0.712
313.15 K, 101.33 kPa, x1 = 0.0177	0.6912
313.15 K, 101.33 kPa, x1 = 0.03479	0.7169
313.15 K, 101.33 kPa, x1 = 0.05127	0.7568
313.15 K, 101.33 kPa, x1 = 0.06723	0.7895
313.15 K, 101.33 kPa, x1 = 0.08263	0.8365
313.15 K, 101.33 kPa, x1 = 0.09755	0.8702
313.15 K, 101.33 kPa, x1 = 0.112	0.914
313.15 K, 101.33 kPa, x1 = 0.126	0.9479
313.15 K, 101.33 kPa, x1 = 0.1395	0.9819
318.15 K, 101 kPa, x1 = 0.018	0.533
318.15 K, 101.33 kPa, x1 = 0.0177	0.6293
318.15 K, 101.33 kPa, x1 = 0.03479	0.6557
318.15 K, 101.33 kPa, x1 = 0.05127	0.6939
318.15 K, 101.33 kPa, x1 = 0.06723	0.7263
318.15 K, 101.33 kPa, x1 = 0.08263	0.7712
318.15 K, 101.33 kPa, x1 = 0.09755	0.7978
318.15 K, 101.33 kPa, x1 = 0.112	0.8423
318.15 K, 101.33 kPa, x1 = 0.126	0.8735
318.15 K, 101.33 kPa, x1 = 0.1395	0.9047
323.15 K, 101.33 kPa, x1 = 0.0177	0.5841
323.15 K, 101.33 kPa, x1 = 0.03479	0.6023
323.15 K, 101.33 kPa, x1 = 0.05127	0.6485
323.15 K, 101.33 kPa, x1 = 0.06723	0.6694
323.15 K, 101.33 kPa, x1 = 0.08263	0.7012
323.15 K, 101.33 kPa, x1 = 0.09755	0.7261
323.15 K, 101.33 kPa, x1 = 0.112	0.7788
323.15 K, 101.33 kPa, x1 = 0.126	0.803
323.15 K, 101.33 kPa, x1 = 0.1395	0.8273

OCCOCCOCCO + CS(C)=O
viscosity [mPa·s], 100 kPa
Conditions	293.15 K	298.15 K	303.15 K	308.15 K	313.15 K	318.15 K
x1 = 0.0266	2.4	2.27	2.01	1.87	1.72	1.53
x1 = 0.0547	2.72	2.64	2.36	2.14	1.97	1.74
x1 = 0.0842	3.09	3.02	2.69	2.42	2.22	1.95
x1 = 0.1155	3.58	3.49	3.08	2.77	2.52	2.21
x1 = 0.1485	4.15	4.03	3.55	3.17	2.87	2.5
x1 = 0.1822	4.76	4.64	4.05	3.61	3.24	–
x1 = 0.2192	5.55	5.38	4.67	4.13	3.7	–
x1 = 0.2575	6.44	6.21	5.36	4.7	4.19	–
x1 = 0.3003	7.57	7.25	6.2	5.42	4.79	–
x1 = 0.3422	8.76	8.35	7.09	6.15	5.42	–
x1 = 0.3888	10.2	9.68	8.15	7.03	6.15	–
x1 = 0.4385	11.9	11.2	9.36	8.03	6.98	–
x1 = 0.4915	13.9	13	10.8	9.17	7.91	–
x1 = 0.5521	16.4	15.2	12.5	10.6	9.07	–
x1 = 0.6114	19.2	17.6	14.3	12	10.2	–
x1 = 0.6754	22.3	20.3	16.4	13.7	11.5	–
x1 = 0.7463	26	23.6	18.9	15.7	13.1	–
x1 = 0.8233	30.6	27.5	21.8	17.9	14.9	–
x1 = 0.9083	35.9	32	25.2	20.5	16.9	–
